# Legend:
# CDK9 = target: T1, CDK9 (Homo sapiens, UniProt P50750); test: CDK protein degradation activity (Western blotting), CDK9; assay type: cell-based; settings: MDA-MB-231 cells, 16 hours, Western blot
# T1 construct: endogenous in cells; host or cells: MDA-MB-231
# In short: (§1)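 Protein levels were read by Western blot densitometry, tubulin serving as loading reference. Beforehand, MDA-MB-231 cells had been exposed for 16 hours to 100 nM, 1 μM or 10 μM compound, DMSO as control.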
# CDK2 = target: T2, CDK2 (Homo sapiens, UniProt P24941); test: CDK protein degradation activity (Western blotting), CDK2; assay type: cell-based; settings: MDA-MB-231 cells, 16 hours, Western blot
# T2 construct: endogenous in cells; host or cells: MDA-MB-231
# In short: as §1
# T1 sequence (P50750 whole entry): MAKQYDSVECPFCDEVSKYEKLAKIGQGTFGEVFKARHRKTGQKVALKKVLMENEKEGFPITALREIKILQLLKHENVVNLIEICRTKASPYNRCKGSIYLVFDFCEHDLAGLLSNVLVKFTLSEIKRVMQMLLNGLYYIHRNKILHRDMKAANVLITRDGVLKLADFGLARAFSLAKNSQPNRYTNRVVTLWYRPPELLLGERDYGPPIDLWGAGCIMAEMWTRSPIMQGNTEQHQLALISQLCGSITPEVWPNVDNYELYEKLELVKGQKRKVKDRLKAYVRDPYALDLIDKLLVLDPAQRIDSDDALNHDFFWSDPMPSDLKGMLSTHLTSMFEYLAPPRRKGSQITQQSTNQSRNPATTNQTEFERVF
Compound,Enzyme degradation CDK9 (% remaining) @ 0.1 μM (CDK9),Enzyme degradation CDK9 (% remaining) @ 1 μM (CDK9),Enzyme degradation CDK9 (% remaining) @ 10 μM (CDK9),Enzyme degradation CDK2 (% remaining) @ 0.1 μM (CDK2),Enzyme degradation CDK2 (% remaining) @ 1 μM (CDK2),Enzyme degradation CDK2 (% remaining) @ 10 μM (CDK2)
"O=C1CC[C@H](N2C(=O)c3cc(F)c(N4CCC(CN5CCC(CCNc6ncnc7c6ncn7[C@H]6C[C@@H](NC(=O)c7c(Cl)cccc7Cl)C6)CC5)CC4)cc3C2=O)C(=O)N1 [Compound 397, 2,6-dichloro-N-((1s,3s)-3-(6-((2-(1-((1-(2-(2,6-dioxopiperidin-3-yl)-6-fluoro-1,3-dioxoisoindolin-5-yl)piperidin-4-yl)methyl)piperidin-4-yl)ethyl)amino)-9H-purin-9-yl)cyclobutyl)benzamide]",70%,10%,10%,50%,30%,30%
"O=C1CC[C@H](n2nnc3ccc(N4CCC(CN5CCC(CCNc6ncnc7c6ncn7C6CC(NC(=O)c7c(Cl)cccc7Cl)C6)CC5)CC4)cc3c2=O)C(=O)N1 (stereo partly drawn) [Compound 398, 2,6-dichloro-N-((1s,3s)-3-(6-((2-(1-((1-(3-(2,6-dioxopiperidin-3-yl)-4-oxo-3,4-dihydrobenzo[d][1,2,3]triazin-6-yl)piperidin-4-yl)methyl)piperidin-4-yl)ethyl)amino)-9H-purin-9-yl)cyclobutyl)benzamide]",20%,10%,10%,20%,30%,30%
"O=C1CC[C@H](N2C(=O)c3ccc(N4CC(C(=O)N5CCC(CN6CCC(CCNc7ncnc8c7ncn8C7CC(NC(=O)c8c(Cl)cccc8Cl)C7)CC6)CC5)C4)cc3C2=O)C(=O)N1 (stereo partly drawn) [Compound 399, 2,6-dichloro-N-((1s,3s)-3-(6-((2-(1-((1-(1-(2-(2,6-dioxopiperidin-3-yl)-1,3-dioxoisoindolin-5-yl)azetidin-3-carbonyl)piperidin-4-yl)methyl)piperidin-4-yl)ethyl)amino)-9H-purin-9-yl)cyclobutyl)benzamide]",0/0/0%,0/0/0%,0/0/0%,30%,40%,40%
"O=C1CCC(N2C(=O)c3ccc(N4CCC(C(=O)N5CCC(CN6CCC(CCNc7ncnc8c7ncn8[C@H]7C[C@@H](NC(=O)c8c(Cl)cccc8Cl)C7)CC6)CC5)CC4)cc3C2=O)C(=O)N1 (stereo partly drawn) [Compound 400, 2,6-dichloro-N-((1s,3s)-3-(6-((2-(1-((1-(1-(2-(2,6-dioxopiperidin-3-yl)-1,3-dioxoisoindolin-5-yl)piperidin-4-carbonyl)piperidin-4-yl)methyl)piperidin-4-yl)ethyl)amino)-9H-purin-9-yl)cyclobutyl)benzamide]",0/0/0%,0/0/0%,0/0/0%,30%,30%,40%
"O=C1CC[C@H](N2C(=O)c3cc(F)c(N4CCC(CCN5CCN(c6ccc(Nc7ncnc8c7ncn8C7CC(NC(=O)c8c(Cl)cccc8Cl)C7)cc6)CC5)CC4)cc3C2=O)C(=O)N1 (stereo partly drawn) [Compound 406, 2,6-dichloro-N-((1s,3s)-3-(6-((4-(4-(2-(1-(2-(2,6-dioxopiperidin-3-yl)-6-fluoro-1,3-dioxoisoindolin-5-yl)piperidin-4-yl)ethyl)piperazin-1-yl)phenyl)amino)-9H-purin-9-yl)cyclobutyl)benzamide]",0/0/0%,0/0/0%,0/0/0%,30/30/30%,30/30/30%,30/30/30%
"O=C1CCC(n2nnc3ccc(N4CCC(CCN5CCN(c6ccc(Nc7ncnc8c7ncn8[C@H]7C[C@@H](NC(=O)c8c(Cl)cccc8Cl)C7)cc6)CC5)CC4)cc3c2=O)C(=O)N1 (stereo partly drawn) [Compound 407, 2,6-dichloro-N-((1s,3s)-3-(6-((4-(4-(2-(1-(3-(2,6-dioxopiperidin-3-yl)-4-oxo-3,4-dihydrobenzo[d][1,2,3]triazin-6-yl)piperidin-4-yl)ethyl)piperazin-1-yl)phenyl)amino)-9H-purin-9-yl)cyclobutyl)benzamide]",0/0/0%,0/0/0%,0/0/0%,60/60/60%,60/60/60%,60/60/60%
"O=C1CC[C@H](N2C(=O)c3ccc(CCCCN4CCC(N5CCN(c6ccc(Nc7ncnc8c7ncn8C7CC(NC(=O)Cc8ccccc8)C7)cc6)CC5)CC4)cc3C2=O)C(=O)N1 (stereo partly drawn) [Compound 408, N-((1s,3s)-3-(6-((4-(4-(1-(4-(2-(2,6-dioxopiperidin-3-yl)-1,3-dioxoisoindolin-5-yl)butyl)piperidin-4-yl)piperazin-1-yl)phenyl)amino)-9H-purin-9-yl)cyclobutyl)-2-phenylacetamide]",20%,10%,10%,40%,30%,30%
"O=C1CCC(N2C(=O)c3cc(F)c(N4CCC(CN5CCC(CCNc6ncnc7c6ncn7[C@H]6C[C@@H](NC(=O)Cc7ccccc7)C6)CC5)CC4)cc3C2=O)C(=O)N1 (stereo partly drawn) [Compound 409, N-((1s,3s)-3-(6-((2-(1-((1-(2-(2,6-dioxopiperidin-3-yl)-6-fluoro-1,3-dioxoisoindolin-5-yl)piperidin-4-yl)methyl)piperidin-4-yl)ethyl)amino)-9H-purin-9-yl)cyclobutyl)-2-phenylacetamide]",70%,50%,10%,70%,40%,40%

# Next, values leading:
Enzyme degradation CDK9 (% remaining) @ 0.1 μM (CDK9),Enzyme degradation CDK9 (% remaining) @ 1 μM (CDK9),Enzyme degradation CDK9 (% remaining) @ 10 μM (CDK9),Enzyme degradation CDK2 (% remaining) @ 0.1 μM (CDK2),Enzyme degradation CDK2 (% remaining) @ 1 μM (CDK2),Enzyme degradation CDK2 (% remaining) @ 10 μM (CDK2),Compound
0/0/0%,0/0/0%,0/0/0%,30%,20%,20%,"Cc1cccc(C(=O)N[C@H]2C[C@@H](n3cnc4c(Nc5ccc(N6CCN(CC7CCN(C(=O)C8CN(c9ccc%10c(c9)C(=O)N([C@H]9CCC(=O)NC9=O)C%10=O)C8)CC7)CC6)cc5)ncnc43)C2)n1 [Compound 401, N-((1s,3s)-3-(6-((4-(4-((1-(1-(2-(2,6-dioxopiperidin-3-yl)-1,3-dioxoisoindolin-5-yl)azetidin-3-carbonyl)piperidin-4-yl)methyl)piperazin-1-yl)phenyl)amino)-9H-purin-9-yl)cyclobutyl)-6-methylpicolinamide]"
0/0/0%,0/0/0%,0/0/0%,70%,50%,50%,"Cc1cccc(C(=O)NC2CC(n3cnc4c(NCCC5CCN(CC6CCN(CC7CN(c8ccc9c(c8)C(=O)N([C@H]8CCC(=O)NC8=O)C9=O)C7)CC6)CC5)ncnc43)C2)n1 (stereo partly drawn) [Compound 402, N-((1s,3s)-3-(6-((2-(1-((1-((1-(2-(2,6-dioxopiperidin-3-yl)-1,3-dioxoisoindolin-5-yl)azetidin-3-yl)methyl)piperidin-4-yl)methyl)piperidin-4-yl)ethyl)amino)-9H-purin-9-yl)cyclobutyl)-6-methylpicolinamide]"
0/0/0%,0/0/0%,0/0/0%,60%,60%,90%,"Cc1cccc(C(=O)NC2CC(n3cnc4c(Nc5ccc(N6CCN(C7CC8(CCN(C(=O)C9CCN(c%10ccc%11c(c%10)C(=O)N([C@H]%10CCC(=O)NC%10=O)C%11=O)CC9)CC8)C7)CC6)cc5)ncnc43)C2)n1 (stereo partly drawn) [Compound 403, N-((1s,3s)-3-(6-((4-(4-(7-(1-(2-(2,6-dioxopiperidin-3-yl)-1,3-dioxoisoindolin-5-yl)piperidin-4-carbonyl)-7-azaspiro[3.5]nonan-2-yl)piperazin-1-yl)phenyl)amino)-9H-purin-9-yl)cyclobutyl)-6-methylpicolinamide]"
0/0/0%,0/0/0%,0/0/0%,50/50/50%,50/50/50%,50/50/50%,"O=C1CC[C@H](N2C(=O)c3ccc(N4CCC(CCN5CCN(c6ccc(Nc7ncnc8c7ncn8[C@H]7C[C@@H](NC(=O)c8c(Cl)cccc8Cl)C7)cc6)CC5)CC4)cc3C2=O)C(=O)N1 [Compound 405, 2,6-dichloro-N-((1s,3s)-3-(6-((4-(4-(2-(1-(2-(2,6-dioxopiperidin-3-yl)-1,3-dioxoisoindolin-5-yl)piperidin-4-yl)ethyl)piperazin-1-yl)phenyl)amino)-9H-purin-9-yl)cyclobutyl)benzamide]"
